Structures are written as SMILES.

For assay [1], the target named is T1, β-Glucocerebrosidase (GCase) (Homo sapiens, UniProt P04062).
T1 sequence (P04062 40-536): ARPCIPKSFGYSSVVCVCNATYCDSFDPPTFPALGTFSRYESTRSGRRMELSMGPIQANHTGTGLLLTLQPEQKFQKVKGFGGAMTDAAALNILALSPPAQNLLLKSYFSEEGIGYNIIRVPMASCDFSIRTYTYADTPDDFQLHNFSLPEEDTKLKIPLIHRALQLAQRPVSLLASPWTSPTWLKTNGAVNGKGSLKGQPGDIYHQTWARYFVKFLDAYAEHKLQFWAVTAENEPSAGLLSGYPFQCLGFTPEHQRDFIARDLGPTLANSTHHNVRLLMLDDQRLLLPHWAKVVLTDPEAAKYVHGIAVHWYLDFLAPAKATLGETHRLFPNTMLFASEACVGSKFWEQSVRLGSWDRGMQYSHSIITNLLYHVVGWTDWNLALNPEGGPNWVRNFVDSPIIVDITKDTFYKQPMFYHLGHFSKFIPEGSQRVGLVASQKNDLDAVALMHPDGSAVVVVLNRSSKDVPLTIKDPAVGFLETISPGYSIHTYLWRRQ
Kind of assay: X-ray crystal structure. The class given is biochemical.

The target of assay [2] is T1, β-Glucocerebrosidase (GCase). Kind of assay: 4MU-β-Glc fluorescence enzyme assay. The class given is biochemical.

A word on the IC50: it is the midpoint of a concentration-inhibition curve. Lower therefore signals greater potency. In assay [1], `O=C(CCCCCCCCC#Cc1ccc2c(c1)CC(Nc1nc(-c3cccnc3)nc3ccccc13)C2)ON1C(=O)CCC1=O` (centres unmarked) [compound 4, JZ-5029] showed an IC50 of 56 nM. The compound `c1cncc(-c2nc(NC3Cc4ccccc4C3)c3ccccc3n2)c1` [compound 3, JZ-4109] displayed an IC50 in assay [2] of 8 nM.

The values are drawn from publication PMC6098685 (Journal of the American Chemical Society, 2018).
